Reference: patent publication US8178688B2, “Benzamidine derivatives, process for the preparation thereof and pharmaceutical composition comprising the same” (Dong Wha Pharmaceutical Co., Ltd., priority 2004, dated 2012)

Test system: cells
Experiment: Cytotoxicity test (MTT)
Format: cell-based
Settings: 10^−6M, 72 hrs, compared with the control group
Summary of the method: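 Benzamidine derivatives were checked for cytotoxicity with an MTT assay. Test substances were diluted in a suitable solvent to 10^−2M. Cells were seeded at 1×10^4 cell/100 μL per well in 96-well microplates and grown for 72 hrs. During the final 4 hrs, 25 μL of MTT (2 mg/mL in PBS) was added. Plates were then centrifuged, the medium removed, formazan dissolved in 100 μL DMSO, and absorbance read at 540 nm.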

CC(C)c1nc(-c2ccc(OCCCCCOc3ccc(C(=N)NO)cc3)cc2)c(CC2CCCC2)s1 [Example 47, N-hydroxy-4-(5-[4-(5-cyclopentylnnethyl-2-isopropyl-1,3-thiazol-4-yl)phenoxy]pentoxy)-benzamidine]
Survival rates of the cells (MC3T3-E1 cells): 54.2%
Survival rates of the cells (ST2 cells): 24.0%
